Results published in patent US20100196325A1 (priority 2007, published 2010).
“Also recorded” adds a separate entry of the source. Read-outs that look alike come from different tables or passages of the source.

Legend:
[1] = system: GI-101A human breast carcinoma cells; design: species or system nude mice; settings: mouse, in vivo
[2] = human, in vivo; for Side effects from the virus: iv
[3] = system: tumor; design: species or system patient; settings: human, in vivo
[4] = Pock formation (systemic toxicity) after i.v. GLV-1h68 in GI-101A tumor-bearing mice; settings: 80 days after virus injection; GLV-1h68 virus-treated animals given four doses of irinotecan 80 mg/kg i.p.; n=8
[5] = system: modified vaccinia virus, such as GLV-1h68; design: species or system patient; settings: human, in vivo
[6] = system: recombinant vaccinia virus GLV-1h68; format: cell-based
[7] = system: A549 lung carcinoma cells; design: species or system nude mice; settings: mouse, in vivo
[8] = system: recombinant vaccinia virus GLV-1h68; format: cell-based; remark: listed apart in the source
[9] = system: PANC-1 human pancreatic carcinoma cells; design: species or system nude mice; settings: mouse, in vivo
[10] = system: recombinant vaccinia virus GLV-1h68; format: cell-based; remark: listed apart in the source

Row | Structure (SMILES) | Effect on tumor growth (in words) [1] | Body weight and pock formation [2] | Patient's symptoms [2] | Virus-associated side effects [2] | Side effects from the virus [2] | Tumor growth [3] | Tumor growth ([3]; iv) | Animals in which no pocks were observed on any part of the body [4] | Viral load in the bloodstream [5] | Viral load in the bloodstream: decrease [5] | Viral load in the bloodstream: increase [5] | Viral load in the bloodstream ([5]; iv) | Concentration at which growth of GLV-1h68 was completely inhibited [6] [µM] | Effect on GLV-1h68 growth in GI-101A cells (in words) [6] | Effect on tumor growth (in words) [7] | Concentration at which growth of GLV-1h68 was completely inhibited [8] [µM] | Effect on tumor growth (in words) [9] | Concentration at which growth of GLV-1h68 was completely inhibited [10] [µM] | Effect on GLV-1h68 growth in GI-101A cells (in words) [10]
1 | CCc1c2c(nc3ccc(OC(=O)N4CCC(N5CCCCC5)CC4)cc13)-c1cc3c(c(=O)n1C2)COC(=O)[C@]3(O)CC [Irinotecan] | increased tumor growth | body weight of the patient is improved and any pock formation dissipates | symptoms subside | Fewer virus-associated side effects | suffers fewer side effects from the virus | tumor growth is arrested or decreases | tumor growth is arrested or decreases | 7 out of 8 | is maintained or increases before subsequently decreasing | decreases more quickly; also recorded: decreases more rapidly | increased to a lesser extent | decreases over the period of time | – | – | – | – | – | – | –
2 | COc1cccc2c1C(=O)c1c(O)c3c(c(O)c1C2=O)C[C@@](O)(C(=O)CO)C[C@@H]3O[C@H]1C[C@H](N)[C@H](O)[C@H](C)O1 [Doxorubicin] | – | body weight of the patient is improved and any pock formation dissipates | symptoms subside | Fewer virus-associated side effects | suffers fewer side effects from the virus | tumor growth is arrested or decreases | – | – | is maintained or increases before subsequently decreasing | decreases more quickly; also recorded: decreases more rapidly | increased to a lesser extent | decreases over the period of time | ≥ 1 | started to inhibit | – | – | – | – | –
3 | Nc1ccn(C2OC(CO)C(O)C2(F)F)c(=O)n1 (centres unmarked) [Gemcitabine, 4-amino-1-[3,3-difluoro-4-hydroxy-5-(hydroxymethyl)tetrahydrofuran-2-yl]-1H-pyrimidine-2-one] | – | body weight of the patient is improved and any pock formation dissipates | symptoms subside | Fewer virus-associated side effects | suffers fewer side effects from the virus | tumor growth is arrested or decreases | tumor growth is arrested or decreases | – | is maintained or increases before subsequently decreasing | decreases more quickly; also recorded: decreases more rapidly | increases to a lesser extent | decreases over the period of time | – | – | did not cause any inhibition of tumor growth | ≥ 1.0 | decrease tumor growth in the mice at both 50 mg/kg and 100 mg/kg doses to some extent | – | –
4 | N.N.[Cl][Pt][Cl] [Cisplatin] | – | body weight of the patient is improved and any pock formation dissipates | symptoms subside | Fewer virus-associated side effects | suffers fewer side effects from the virus | tumor growth is arrested or decreases | – | – | is maintained or increases before subsequently decreasing | decreases more quickly; also recorded: decreases more rapidly | increased to a lesser extent | decreases over the period of time | – | – | – | – | – | ≥ 100 | started to inhibit; also recorded: significantly inhibited the virus growth
